This is an account of results in US9989519B1, “Method for determining in vitro bioequivalence of a sucralfate suspension sample to a sucralfate suspension reference listed drug (RLD)” (Clayton Pharmaceuticals, LLC, priority 2017, dated 2018).

For this test, the system named is Caco-2 cell monolayers. Nature of the test: Indomethacin-induced damage (loss of TEER) in Caco-2 cell monolayers, assay development. Format: cell-based, human. The method, then: Considering the fact that the Caco-2 cell model mimics the human intestinal mucosa, and that the intraluminal pH of the small intestine ranges from approximately 6.0 to 7.4, evaluation of the damage induced by indomethacin (the chosen ulcerogenic agent, the use of which was previously reported) was performed at these two pH conditions. The choice of 0.75 mM indomethacin was based on earlier observations reported for a similar evaluation using Caco-2 cells for this initial assay development stage. For each pH condition, the damage was measured by comparing the TEER values of indomethacin-treated cell monolayers with those of control cell monolayers before and after the assay, and the % of TEER remaining (compared to the control treatment) was calculated. The results are illustrated below in FIG. 7. […] In contrast, for the assay with the pH condition of 6.0, approximately 50% of the TEER was lost by two hours and nearly 80% of the TEER was lost by the end of the assay duration of 5 hours. […] Therefore, pH 6.0 was selected as the optimal pH condition on the apical (modeling the luminal) side for this assay. It was also noted that the majority of the damage was caused between 2 and 3 hours of duration; any additional damage after three hours was marginal. For this reason, further evaluations were performed at a truncated duration of 2 to 3 hours. Considering the fact that significant damage to the cells was induced post two hours in the assessment above and the fact that a shorter assay duration would be desirable for the purposes of experimental logistics, different concentrations (1, 1.5 and 2 mM) of indomethacin were tested to understand the extent of damage caused to the cell monolayers as a function of indomethacin concentration using apical pH of 6.0 and a 3 hour duration. […] Therefore, a concentration of 2 mM was selected as the optimal concentration for this assay.

Regarding `COc1ccc2c(c1)c(CC(=O)O)c(C)n2C(=O)c1ccc(Cl)cc1` [indomethacin], the “damage to the cell monolayers as a function of indomethacin concentration” value (2 mM (1, 1.5 and 2 mM tested), apical pH 6.0, 3 hour duration) is recorded as “Maximum damage”. Besides, the TEER lost reads like this: (indomethacin 0.75 mM, apical pH 6.0, 5 hours) about 80%; (indomethacin 0.75 mM, apical pH 6.0, two hours) “approximately 50%”. Besides, the “loss of TEER” value (indomethacin 0.75 mM, pH 7.4, 5 hours) was “a significant loss of TEER was not observed”.
